In patent US20130096067A1, “DROSOPHILA TUMOR STEM CELL MODEL AND USES THEREOF” (priority 2011, published 2013):
Structures can show the parent of a compound that is named as a salt.

Key:
[1] = test system: Raf-1^gof intestinal tumors; assay: Luciferase screen of FDA-approved (NCI) drugs in 96-well plates, flies with Raf-1^gof intestinal tumors; type: in vivo, Drosophila; as to Avg (3 + 6): test concentration or dose not given here; as to Log2 (fold): test concentration or dose not given here
[2] = test system: Raf-1^gof intestinal tumors; conditions: assessed three days later; for Log2 (fold) of luciferase activity relative to DMSO controls / Fold (luciferase activity relative to DMSO controls): ICCB compounds fed in vials to flies with one-day old Raf-1^gof tumors; for Fold (luciferase activity relative to DMSO controls) / Fold (luciferase activity, fold difference relative to DMSO controls): averaged from multiple wells; for Log2 (fold) (luciferase activity, log2 of the fold difference relative to DMSO controls) / Fold (luciferase activity, fold difference relative to DMSO controls): screen of 480 ICCB compounds in vials, compounds fed to flies with one-day old Raf-1^gof tumors, esg-Gal4 luciferase; as to all read-outs here: test concentration or dose not given here
[3] = average of Day 3 and Day 6 fold
[4] = log2 of the Day 3 fold difference in luciferase relative to DMSO controls
[5] = luciferase activity relative to DMSO controls, single dose of drug for three days, 96-well plates
[6] = six-day protocol: single dose for three days, then another dose for three more days

Compound	Avg (3 + 6) [1, 3] [fold]	Log2 (fold) [1, 4]	Day 3 Fold [1, 5] [fold]	Day 6 Fold [1, 6] [fold]	further results
O=C(CCBr)N1CCN(C(=O)CCBr)CC1 [Pipobroman]	0.853	−0.011	0.992	0.714	–
C=C1C[C@@H]2[C@H](CC[C@]3(C)C(=O)CC[C@@H]23)[C@@]2(C)C=CC(=O)C=C12 [Exemestane]	0.739	−0.246	0.843	0.634	–
CC(=O)O[C@]1(C(C)=O)CC[C@H]2[C@@H]3C=C(C)C4=CC(=O)CC[C@]4(C)[C@H]3CC[C@@]21C [Megestrol acetate]	1.219	0.418	1.336	1.101	–
Nc1ncn([C@@H]2O[C@H](CO)[C@@H](O)[C@H]2O)c(=O)n1 [Azacitidine]	1.045	0.157	1.115	0.976	–
CC[C@]1(O)C[C@H]2CN(CCc3c([nH]c4ccccc34)[C@@](C(=O)OC)(c3cc4c(cc3OC)N(C=O)[C@H]3[C@@](O)(C(=O)OC)[C@H](OC(C)=O)[C@]5(CC)C=CCN6CC[C@]43[C@@H]65)C2)C1 [Vincristine sulfate]	0.314	−2.100	0.233	0.394	–
CCCCCOC(=O)Nc1nc(=O)n([C@@H]2O[C@H](C)[C@@H](O)[C@H]2O)cc1F [Capecitabine]	1.017	−0.078	0.947	1.087	–
COc1c2occc2cc2ccc(=O)oc12 [Methoxsalen]	0.927	−0.016	0.989	0.866	–
COc1cccc2c1C(=O)c1c(O)c3c(c(O)c1C2=O)C[C@@](O)(C(=O)CO)C[C@@H]3O[C@H]1C[C@H](N)[C@H](O)[C@H](C)O1 [Doxorubicin HCl]	1.084	−0.090	0.939	1.228	–
CN(C)c1nc(N(C)C)nc(N(C)C)n1 [Altretamine]	0.611	−0.625	0.649	0.574	–
Estramustine disodium phosphate	–	–	–	–	Avg (3 + 6) ([1]; in vivo): 0.922 fold; Day 3 Fold ([1]; in vivo): 0.971 fold; Day 6 Fold ([1]; in vivo): 0.872 fold; Log2 (fold) ([1]; in vivo): −0.042
NCCCNCCSP(=O)(O)O [Amifostine]	1.239	0.248	1.187	1.291	–
N#Cc1ccc(C(c2ccc(C#N)cc2)n2cncn2)cc1 [Letrozole]	1.302	0.337	1.263	1.342	–
Nc1ccn([C@@H]2O[C@H](CO)[C@@H](O)C2(F)F)c(=O)n1 [Gemcitabine HCl]	0.104	−2.666	0.158	0.051	–
OC[C@H]1O[C@@H](n2cnc3c2NC=NC[C@H]3O)C[C@@H]1O [Pentostatin]	0.951	–	–	–	Day 3 Fold ([1]; po, 72 h): 1.232 fold; Log2 (fold) ([1]; po, 72 h): 0.301
Cc1ccc(NC(=O)c2ccc(CN3CCN(C)CC3)cc2)cc1Nc1nccc(-c2cccnc2)n1 [Imatinib]	0.674	−0.558	0.679	0.670	–
Oc1ncc(N(CCCl)CCCl)c(O)n1 [Uracil mustard]	–	–	–	–	Avg (3 + 6) ([1]; in vivo): 0.869 fold; Day 3 Fold ([1]; in vivo): 0.966 fold; Day 6 Fold ([1]; in vivo): 0.773 fold; Log2 (fold) ([1]; in vivo): −0.050
C#Cc1cccc(Nc2ncnc3cc(OCCOC)c(OCCOC)cc23)c1 [Erlotinib HCl]	–	–	–	–	Avg (3 + 6) ([1]; in vivo): 0.986 fold; Day 3 Fold ([1]; in vivo): 1.030 fold; Day 6 Fold ([1]; in vivo): 0.942 fold; Log2 (fold) ([1]; in vivo): 0.042
N.N.[Cl][Pt][Cl] [Cisplatin]	1.113	0.145	1.106	1.120	–
CCc1c2c(nc3ccc(OC(=O)N4CCC(N5CCCCC5)CC4)cc13)-c1cc3c(c(=O)n1C2)COC(=O)[C@]3(O)CC [Irinotecan HCl]	–	–	–	–	Avg (3 + 6) ([1]; in vivo): 0.705 fold; Day 3 Fold ([1]; in vivo): 0.870 fold; Day 6 Fold ([1]; in vivo): 0.541 fold; Log2 (fold) ([1]; in vivo): −0.201
O=C(c1ccc(OCCN2CCCCC2)cc1)c1c(-c2ccc(O)cc2)sc2cc(O)ccc12 [Raloxifene HCl]	1.100	0.337	1.263	0.936	–
O=c1[nH]c(=O)n([C@H]2C[C@H](O)[C@@H](CO)O2)cc1F [Floxuridine]	0.149	−2.204	0.217	0.080	–

Compound	Avg (3 + 6) [1, 3] [fold]	Log2 (fold) [1, 4]	Day 3 Fold [1, 5] [fold]	Day 6 Fold [1, 6] [fold]	further results
Nc1nc(Cl)nc2c1ncn2[C@@H]1O[C@H](CO)[C@@H](O)[C@@H]1F [Clofarabine]	0.868	−0.164	0.893	0.843	–
CNNCc1ccc(C(=O)NC(C)C)cc1 [Procarbazine]	1.119	0.470	1.385	0.854	–
O=C(O)CCCc1ccc(N(CCCl)CCCl)cc1 [Chlorambucil]	1.022	0.175	1.129	0.915	–
O=NN(CCCl)C(=O)NC1CCCCC1 [Lomustine, CCNU, Lomustine]	0.712	–	–	–	Day 3 Fold ([1]; po, 72 h): 0.651 fold; Log2 (fold) ([1]; po, 72 h): −0.619
Nc1nc2nc[nH]c2c(=S)[nH]1 [Thioguanine]	1.392	0.495	1.409	1.375	–
Nc1ccn([C@@H]2O[C@H](CO)[C@@H](O)[C@@H]2O)c(=O)n1 [Cytarabine HCl]	1.112	0.100	1.072	1.153	–
NCC(=O)CCC(=O)O [Aminolevulinic acid]	0.897	−0.016	0.989	0.805	–
CN(C)/N=N/c1[nH]cnc1C(N)=O [Dacarbazine]	0.960	−0.010	0.993	0.927	–
CC1=C(/C=C/C(C)=C/C=C/C(C)=C/C(=O)O)C(C)(C)CCC1 [Tretinoin]	0.871	−0.040	0.972	0.769	–
COc1cc([C@@H]2c3cc4c(cc3[C@@H](O[C@@H]3O[C@@H]5CO[C@@H](c6cccs6)O[C@H]5[C@H](O)[C@H]3O)[C@H]3COC(=O)[C@H]23)OCO4)cc(OC)c1O [Teniposide]	0.634	−0.679	0.625	0.642	–
CNC(=O)c1cc(Oc2ccc(NC(=O)Nc3ccc(Cl)c(C(F)(F)F)c3)cc2)ccn1 [Sorafenib]	–	–	–	–	Avg (3 + 6) ([1]; in vivo): 1.046 fold; Day 3 Fold ([1]; in vivo): 0.752 fold; Day 6 Fold ([1]; in vivo): 1.339 fold; Log2 (fold) ([1]; in vivo): −0.410
Clc1ccc(C(c2ccccc2Cl)C(Cl)Cl)cc1 (stereo not shown) [Mitotane]	–	–	–	–	Avg (3 + 6) ([1]; in vivo): 0.882 fold; Day 3 Fold ([1]; in vivo): 0.827 fold; Day 6 Fold ([1]; in vivo): 0.938 fold; Log2 (fold) ([1]; in vivo): −0.274
O=P1(NCCCl)OCCCN1CCCl (stereo not shown) [Ifosfamide]	1.004	−0.026	0.982	1.026	–
CCCCC(=O)OCC(=O)[C@]1(O)Cc2c(O)c3c(c(O)c2[C@@H](O[C@H]2C[C@H](NC(=O)C(F)(F)F)[C@H](O)[C@H](C)O2)C1)C(=O)c1c(OC)cccc1C3=O [Valrubicin]	0.778	−0.190	0.876	0.679	–
Cc1ccc(-c2cc(C(F)(F)F)nn2-c2ccc(S(N)(=O)=O)cc2)cc1 [Celecoxib]	0.755	−0.565	0.676	0.834	–
CCCCC[C@H](O)/C=C/[C@@H]1[C@@H](CCCCCCC(=O)O)[C@@H](O)C[C@H]1O [PROSTAGLANDIN F1a]	–	–	–	–	Log2 (fold) of luciferase activity relative to DMSO controls [2]: −0.208; Fold (luciferase activity relative to DMSO controls) [2]: 0.866 fold
O=C(O)c1ccccc1Nc1ccccc1	–	–	–	–	Log2 (fold) (luciferase activity, log2 of the fold difference relative to DMSO controls) [2]: −0.355; Fold (luciferase activity, fold difference relative to DMSO controls) [2]: 0.782
COc1ccc(C[C@H](N)C(=O)N[C@H]2[C@@H](O)[C@H](n3cnc4c(N(C)C)ncnc43)O[C@@H]2CO)cc1 [puromycin]	–	–	–	–	Log2 (fold) of luciferase activity relative to DMSO controls [2]: 0.281; Fold (luciferase activity relative to DMSO controls) [2]: 1.215 fold
CC/C=C\C/C=C\C/C=C\CCCCCCCCCC(=O)O [EICOSATRIENOIC ACID (20:3 n-3)]	–	–	–	–	Log2 (fold) of luciferase activity relative to DMSO controls [2]: 0.198; Fold (luciferase activity relative to DMSO controls) [2]: 1.147 fold
CCCCCCCCCCCCCCC(F)C(=O)O (stereo not shown) [2-FLUOROPALMITIC ACID]	–	–	–	–	Log2 (fold) of luciferase activity relative to DMSO controls [2]: 0.051; Fold (luciferase activity relative to DMSO controls) [2]: 1.036 fold
CCCCC[C@H](O)/C=C/[C@H]1C=CC(=O)[C@@H]1C/C=C\CCCC(=O)O [PROSTAGLANDIN A2]	–	–	–	–	Log2 (fold) (luciferase activity, log2 of the fold difference relative to DMSO controls) [2]: −0.295; Fold (luciferase activity, fold difference relative to DMSO controls) [2]: 0.815
